Assay results as given in PubChem BioAssay (NCI).
Several values for one entry are separate records, joined by “and”; a condition that tells them apart may be missing. Equal entries are not always repeated.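 These data come from cells grown in 96-well plates and exposed to compound for 48 hours at five concentrations. The concentration for 50% growth inhibition is given as GI50. TGI: total growth inhibition.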

Experiments:
Test in all cases: NCI-60 cell line screen, 48 h
UACC-62 melanoma = system: UACC-62 melanoma
CCRF-CEM leukemia = system: CCRF-CEM leukemia
OVCAR-5 ovarian = system: OVCAR-5 ovarian
RXF 393 renal = system: RXF 393 renal
NCI-H460 lung = system: NCI-H460 lung
K-562 leukemia = system: K-562 leukemia
UO-31 renal = system: UO-31 renal
SNB-19 CNS = system: SNB-19 CNS

SMILES	GI50 (UACC-62 melanoma)	TGI (UACC-62 melanoma)	GI50 (CCRF-CEM leukemia) [µM]	TGI (CCRF-CEM leukemia) [µM]	GI50 (OVCAR-5 ovarian)	TGI (OVCAR-5 ovarian)	GI50 (RXF 393 renal)	TGI (RXF 393 renal)	GI50 (NCI-H460 lung)	TGI (NCI-H460 lung)	GI50 (K-562 leukemia) [µM]	TGI (K-562 leukemia) [µM]	GI50 (UO-31 renal)	TGI (UO-31 renal)	GI50 (SNB-19 CNS)	TGI (SNB-19 CNS)
COc1ccc2c(c1)[nH]c(=O)c1c3cccnc3cn21	0.0431 µM	19.3 µM	0.0437	> 100	205 nM	> 100 µM	19.5 nM	0.055 µM	0.0363 µM	2.06 µM	0.0271	19.8	79.7 nM	14.6 µM	51.5 nM	> 100 µM
O=c1c2cc(Br)ccc2oc2ccc(Br)cc12	–	> 100 µM	–	> 100	–	> 100 µM	–	> 100 µM	–	> 100 µM	–	> 100	–	> 100 µM	–	> 100 µM
CCN(CC)c1ccc(/C=N/NC(=O)c2ccc(Nc3ccnc(C(F)(F)F)c3)cc2)c(O)c1	0.229 µM	0.898 µM	0.0532	0.771	380 nM	4.75 µM	156 nM	0.44 µM	0.212 µM	1.48 µM	0.147	3.47	117 nM	1.91 µM	390 nM	> 73.6 µM
COC(=O)C1=CN(CC2=CC(=O)C(C)=CC2=O)C=C(C(=O)OC)C1c1cccc(OC)c1OC	13 µM	30.4 µM	12.5	77.9	18700 nM	36.3 µM	11500 nM	26.9 µM	19.7 µM	> 70.7 µM	3.62	26	12900 nM	25.5 µM	> 43100 nM	> 70 µM
O=c1cc/c(=N\Nc2ccccc2)c(=O)/c1=N/Nc1ccccc1	> 50 µM	> 50 µM	> 50	> 50	> 50000 nM	> 50 µM	> 50000 nM	> 50 µM	> 50 µM	> 50 µM	> 50	> 50	> 50000 nM	> 50 µM	> 50000 nM	> 50 µM
O=C(Nc1ccccc1Cl)c1cnc2ccc(C3CCNCC3)cn12	14.2 µM	56.7 µM	> 100	> 100	1900 nM	> 100 µM	802 nM	4.84 µM	> 87.3 µM	> 100 µM	8.23	> 100	2130 nM	> 100 µM	> 87700 nM	> 100 µM
FC(F)(F)c1ccc2c(c1)N(CCCN1CCN(C3CC3)CC1)c1ccccc1S2	14.1 µM	30.1 µM	9.11	29.3	13200 nM	27.6 µM	11500 nM	24.1 µM	5.99 µM	19.8 µM	3.98	20.5	8130 nM	22.9 µM	17100 nM	36.2 µM
Cc1cccc2c3c(sc12)C(c1ccc(Cl)cc1)C(C#N)=C(/N=C/c1ccc(Cl)cc1)O3 (configuration not stated)	0.337 µM	12.7 µM	0.381	> 63.7	558 nM	> 100 µM	240 nM	0.776 µM	0.425 µM	> 100 µM	0.281	> 46.5	653 nM	> 100 µM	457 nM	24.3 µM
COc1ccc(C2=NNC(c3ccc(-c4ccc(OC)cc4[N+](=O)[O-])o3)C2)cc1 (configuration not stated)	0.691 µM	19.4 µM	70	> 100	> 100000 nM	> 100 µM	20300 nM	54.1 µM	46.8 µM	> 100 µM	36.4	> 100	> 100000 nM	> 100 µM	31800 nM	> 100 µM
O=C(O)CC(Cc1ccc2c(c1)OCO2)C(=O)O (configuration not stated)	–	> 100 µM	–	> 100	–	> 100 µM	–	> 100 µM	–	> 100 µM	–	> 100	–	> 100 µM	–	> 100 µM
CC(C)(C)Cn1c(N)nc2ccc(-c3[nH]c(C(C)(C)C)nc3-c3ccc(F)cc3)nc21	10.1 µM	23.2 µM	12.6	> 63	13700 nM	29.3 µM	4040 nM	14.6 µM	7.46 µM	26.5 µM	3.73	> 72.8	406 nM	15.1 µM	11700 nM	24.8 µM
COc1cc(N2CCC(N(C)C)CC2)ccc1Nc1ncc(Cl)c(Nc2ccccc2P(C)(C)=O)n1	3.07 µM and 0.775 µM	20.2 µM and > 5.16 µM	–	> 100	351 nM and 198 nM	8.97 µM and > 10 µM	442 nM and 202 nM	1.88 µM and 0.874 µM	1.92 µM and 0.385 µM	12.9 µM and > 3.67 µM	–	> 100	1820 nM and 752 nM	4.73 µM and 4.59 µM	2250 nM and 1070 nM	98.7 µM and > 10 µM
CC1(C)OC2C(CO)OC(n3ccc(=O)[nH]c3=O)C2O1 (configuration not stated)	–	> 100 µM	–	> 100	–	> 100 µM	–	> 100 µM	–	> 100 µM	–	> 100	–	> 100 µM	–	> 100 µM
